The source of these data is ChEMBL document CHEMBL1129556, “Design, synthesis, and evaluation of latent alkylating agents activated by glutathione S-transferase” (J Med Chem, 1996).

The species entered for assay [1] is Homo sapiens. Put plainly: Inhibitory activity (treatment time 120 min) against MCF-7 pi cell line. The note with it: MCF7, 2 h. In kind it is functional.
For assay [2], the species on record is Homo sapiens. Kind of assay: Inhibitory activity (treatment time 120 min) against MCF-7 neo cell line. The conditions noted are these: MCF7, 2 h. In kind it is functional.

pIC50: −log10 of the molar value.

On to `NC(CCC(=O)NC(CS(=O)(=O)CCOP(=O)(N(CCCl)CCCl)N(CCCl)CCCl)C(=O)NC(C(=O)O)c1ccccc1)C(=O)O` (stereo not given), for which the pIC50 in the assay filed under Homo sapiens [1] is 4.84; in the assay listed under Homo sapiens [2], 4.40.
The matching figures for `NC(CCC(=O)NC(CS(=O)(=O)CCOC(=O)N(CCCl)CCCl)C(=O)NCC(=O)O)C(=O)O` (stereo not given): 4.07 and 3.88.
Take `NC(CCC(=O)NC(CS(=O)(=O)CCOP(=O)(N(CCBr)CCBr)N(CCBr)CCBr)C(=O)NC(C(=O)O)c1ccccc1)C(=O)O` (stereo not given): the pIC50 in the assay listed under Homo sapiens [1] is 4.94; in the assay filed under Homo sapiens [2] it was 4.79.
The matching figures for `NC(CCC(=O)NC(CS(=O)(=O)C(COP(=O)(N(CCCl)CCCl)N(CCCl)CCCl)c1ccccc1)C(=O)NCC(=O)O)C(=O)O` (stereo not given): 4.87 and 4.67.
The matching figures for `CCOC(=O)CNC(=O)C(CS(=O)(=O)CCOC(=O)N(CCCl)CCCl)NC(=O)CCC(N)C(=O)OCC` (stereo not given): 4.16 and 3.99.
